# Measurements: patent US7655233B2 (priority 2005, dated 2010)
# System: Vesicular Stomatitis Virus
substance,measurement,value
Polysorbate 80,virus inactivation by excipient,no appreciable virus inactivation occurred
